Assay results from PubChem BioAssay AID180 (DTP/NCI, 2004).
“And” between values parts separate entries of the source, which are not always exact repeats. Identical values can stand only once.

System: BDF1 mice, Adenocarcinoma 755 s.c., tumor weight T/C
Assay: NCI In Vivo Anticancer Drug Screen. Data for tumor model Adenocarcinoma 755 (subcutaneous) in B6D2F1 (BDF1) mice
Details: endpoint: mean tumor weight, higher = larger tumour
How it was run: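 In vivo antitumor screen on a transplantable tumor line. Result equals the measure in compound-treated animals divided by the same measure in vehicle controls.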

[1] = dose: 50.0 mg/kg/injection, schedule: Q01DX011 (ip), vehicle: carboxymethylcellulose (CMC)
[2] = dose: 500.0 mg/kg/injection, schedule: Q01DX011 (ip), vehicle: saline

O=C(OCC1OC(n2cnc3c(=S)nc[nH]c32)C(OC(=O)c2ccc(Cl)cc2)C1OC(=O)c1ccc(Cl)cc1)c1ccc(Cl)cc1 (centres undefined)
T/C [1]: 85 % of control
T/C (dose: 400.0 mg/kg/injection, schedule: Q01DX011 (ip), vehicle: carboxymethylcellulose (CMC)): 1 % of control and 5 % of control

[N-]=[N+]=CC(=O)NCC(=O)NN
T/C (dose: 62.5 mg/kg/injection, schedule: Q01DX011 (ip), vehicle: saline): 115 % of control
T/C (dose: 250.0 mg/kg/injection, schedule: Q01DX011 (ip), vehicle: saline): 39 % of control
T/C [2]: 43 % of control

O=c1[nH]cc(C(F)(F)F)c(=O)[nH]1
T/C (dose: 50.0 mg/kg/injection, schedule: Q01DX011 (ip), vehicle: saline): 53 % of control
T/C (dose: 100.0 mg/kg/injection, schedule: Q01DX011 (ip), vehicle: saline): 65 % of control
T/C (dose: 200.0 mg/kg/injection, schedule: Q01DX011 (ip), vehicle: saline): 38 % of control and 57 % of control
T/C (dose: 300.0 mg/kg/injection, schedule: Q01DX011 (ip), vehicle: saline): 40 % of control and 56 % of control
T/C (dose: 400.0 mg/kg/injection, schedule: Q01DX011 (ip), vehicle: saline): 32 % of control and 34 % of control
T/C [2]: 56 % of control and 65 % of control
T/C (dose: 600.0 mg/kg/injection, schedule: Q01DX011 (ip), vehicle: saline): 37 % of control

NC(CCSCc1ccc(N(CCCl)CCCl)cc1)C(=O)O (centres undefined)
T/C (dose: 4.5 mg/kg/injection, schedule: Q01DX011 (ip), vehicle: saline): 99 % of control and 74 % of control
T/C (dose: 9.0 mg/kg/injection, schedule: Q01DX011 (ip), vehicle: saline): 43 % of control and 54 % of control
T/C (dose: 36.0 mg/kg/injection, schedule: Q01DX011 (ip), vehicle: saline): 29 % of control
T/C (dose: 54.0 mg/kg/injection, schedule: Q01DX011 (ip), vehicle: saline): 21 % of control

[Br][Hg][CH2]C1COC([CH2][Hg][Br])CO1 (centres undefined)
T/C (dose: 6.0 mg/kg/injection, schedule: Q01DX011 (ip), vehicle: carboxymethylcellulose (CMC)): 101 % of control
T/C (dose: 12.0 mg/kg/injection, schedule: Q01DX011 (ip), vehicle: carboxymethylcellulose (CMC)): 60 % of control
T/C [1]: 27 % of control

CC(C)CSc1nc(N)nc2c1ncn2C1OC(CO)C(O)C1O (centres undefined)
T/C (dose: 2.32 mg/kg/injection, schedule: Q01DX011 (ip), vehicle: methylcellulose (MC)): 54 % of control
T/C (dose: 4.65 mg/kg/injection, schedule: Q01DX011 (ip), vehicle: methylcellulose (MC)): 37 % of control
T/C (dose: 9.3 mg/kg/injection, schedule: Q01DX011 (ip), vehicle: methylcellulose (MC)): 25 % of control
T/C (dose: 18.75 mg/kg/injection, schedule: Q01DX011 (ip), vehicle: methylcellulose (MC)): 12 % of control and 15 % of control
T/C (dose: 37.5 mg/kg/injection, schedule: Q01DX011 (ip), vehicle: methylcellulose (MC)): 3 % of control
T/C (dose: 75.0 mg/kg/injection, schedule: Q01DX011 (ip), vehicle: methylcellulose (MC)): 2 % of control
T/C (dose: 150.0 mg/kg/injection, schedule: Q01DX011 (ip), vehicle: methylcellulose (MC)): 2 % of control

Cn1c(=O)c2c(nc(N/N=C/c3ccccc3Br)n2C)n(C)c1=O
T/C (dose: 30.0 mg/kg/injection, schedule: Q01DX011 (ip), vehicle: carboxymethylcellulose (CMC)): 96 % of control
T/C (dose: 120.0 mg/kg/injection, schedule: Q01DX011 (ip), vehicle: carboxymethylcellulose (CMC)): 101 % of control
T/C (dose: 240.0 mg/kg/injection, schedule: Q01DX011 (ip), vehicle: carboxymethylcellulose (CMC)): 89 % of control

O=C1Nc2cc3c(c4cccc1c24)CCCC3
T/C (dose: 1.25 mg/kg/injection, schedule: Q01DX011 (ip), vehicle: carboxymethylcellulose (CMC)): 111 % of control
T/C (dose: 5.0 mg/kg/injection, schedule: Q01DX011 (ip), vehicle: carboxymethylcellulose (CMC)): 95 % of control

O=C(Nc1ccc2c(O)c(N=Nc3ccccc3)c(S(=O)(=O)O)cc2c1)Nc1ccc2c(O)c(N=Nc3ccc4cc(S(=O)(=O)O)ccc4c3)c(S(=O)(=O)O)cc2c1
T/C (dose: 45.0 mg/kg/injection, schedule: Q01DX011 (ip), vehicle: carboxymethylcellulose (CMC)): 47 % of control

Nc1nc(=S)c2ncn(C3OC(COC(=O)c4ccccc4)C(OC(=O)c4ccccc4)C3OC(=O)c3ccccc3)c2[nH]1 (centres undefined)
T/C (dose: 12.5 mg/kg/injection, schedule: Q01DX011 (ip), vehicle: methylcellulose (MC)): 52 % of control
T/C (dose: 25.0 mg/kg/injection, schedule: Q01DX011 (ip), vehicle: methylcellulose (MC)): 49 % of control
T/C (dose: 50.0 mg/kg/injection, schedule: Q01DX011 (ip), vehicle: methylcellulose (MC)): 7 % of control
T/C (dose: 100.0 mg/kg/injection, schedule: Q01DX011 (ip), vehicle: methylcellulose (MC)): 3 % of control

CC1(c2ccccc2)O[C@@H]2C[C@H]3[C@@H]4CCC5=CC(=O)C=C[C@]5(C)[C@@]4(F)[C@@H](O)C[C@]3(C)[C@]2(C(=O)CO)O1 (some centres undefined)
T/C (dose: 2.75 mg/kg/injection, schedule: Q01DX011 (sc), vehicle: steriod suspending solution): 42 % of control and 45 % of control
T/C (dose: 5.5 mg/kg/injection, schedule: Q01DX011 (sc), vehicle: steriod suspending solution): 14 % of control and 24 % of control
T/C (dose: 11.0 mg/kg/injection, schedule: Q01DX011 (sc), vehicle: steriod suspending solution): 2 % of control and 24 % of control
